PubChem BioAssay (NCI)
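48-hour exposure; five concentrations; linearly interpolated endpoints. GI50 = concentration required for 50% inhibition of growth. TGI: total growth inhibition.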

Tests used:
Experiment in all cases: NCI anticancer screen, dose series, 48 h
SNB-75 CNS = tested on: SNB-75 CNS
RXF 393 renal = tested on: RXF 393 renal
SR leukemia = tested on: SR leukemia
NCI-H522 lung = tested on: NCI-H522 lung
OVCAR-5 ovarian = tested on: OVCAR-5 ovarian
TK-10 renal = tested on: TK-10 renal
COLO 205 colon = tested on: COLO 205 colon
786-0 renal = tested on: 786-0 renal
LOX IMVI melanoma = tested on: LOX IMVI melanoma
A498 renal = tested on: A498 renal

| Structure (SMILES) | TGI (SNB-75 CNS) | TGI (RXF 393 renal) | TGI (SR leukemia) | TGI (NCI-H522 lung) | TGI (OVCAR-5 ovarian) | TGI (TK-10 renal) | TGI (COLO 205 colon) | TGI (786-0 renal) | TGI (LOX IMVI melanoma) | TGI (A498 renal) | GI50 (SNB-75 CNS) | GI50 (RXF 393 renal) | GI50 (SR leukemia) | GI50 (NCI-H522 lung) | GI50 (TK-10 renal) | GI50 (COLO 205 colon) | GI50 (786-0 renal) | GI50 (LOX IMVI melanoma) | GI50 (A498 renal) | GI50 (OVCAR-5 ovarian) |
| --- | --- | --- | --- | --- | --- | --- | --- | --- | --- | --- | --- | --- | --- | --- | --- | --- | --- | --- | --- | --- |
| CCCCCCCCCCCCCCCCC1=CC(=O)C=C(OC)C1=O | > 100 µM | > 100 µM | 92.7 µM | > 100 µM | > 100 µM | > 100 µM | > 100 µM | > 100 µM | > 100 µM | > 100 µM |  |  |  |  |  |  |  |  |  |  |
| Nc1nc(N)c2nc(CNc3ccc(C(=O)CC(CCC(=O)O)C(=O)O)cc3)cnc2n1 (stereo not given) | > 100 µM | > 100 µM |  | > 100 µM | > 100 µM | > 100 µM | > 100 µM | > 100 µM | > 100 µM | > 100 µM | 4.71 µM | > 100 µM | < 0.019 µM | 0.47 µM | 0.385 µM | 5.77 µM | 0.0566 µM | < 0.0229 µM | 3.15 µM |  |
| COc1ccc(-c2coc3ncnc(N)c23)cc1 | > 25 µM | > 25 µM | > 25 µM | > 25 µM | > 25 µM | > 25 µM | > 25 µM | > 25 µM | > 25 µM | > 25 µM | > 25 µM | > 25 µM | > 25 µM | > 25 µM | > 25 µM | > 25 µM | > 25 µM | > 25 µM | 13.7 µM | > 25 µM |
| O=c1c(O)c(-c2ccc(O)c(O)c2)oc2cc(O)ccc12 | 18.2 µM | 47 µM | 99.8 µM | 45.3 µM | 42.1 µM | > 88.8 µM | > 100 µM | > 91.5 µM | 32.4 µM | 62.3 µM |  |  |  |  |  |  |  |  |  |  |
| Cc1cc(N(CCC#N)CCC#N)ccc1/C=C1/CN(N2C(=O)/C(=C/c3ccc(N(CCC#N)CCC#N)cc3C)N=C2c2ccccc2)C(c2ccccc2)=N1 | 51.1 µM | 76.8 µM | > 100 µM | > 100 µM | > 100 µM | 75.9 µM | > 100 µM | > 100 µM | > 100 µM | > 100 µM |  |  |  |  |  |  |  |  |  |  |
| O=C1C2CC3C(CC2C(=O)[N]1[Sn]([c]1ccccc1)([c]1ccccc1)[c]1ccccc1)C1(Cl)C(Cl)=C(Cl)C3(Cl)C1(Cl)Cl (stereo not given) | 0.19 µM | 0.26 µM | 0.532 µM | 0.226 µM | 0.317 µM | 0.288 µM | 0.33 µM | 0.336 µM | 0.184 µM | 0.276 µM | 0.0347 µM | 0.0863 µM | 0.102 µM | 0.0924 µM | 0.145 µM | 0.152 µM | 0.157 µM | 0.0588 µM | 0.12 µM | 0.151 µM |
| O=S(=O)(NCCNc1cc(-c2cn(-c3ccccc3)nc2-c2cccc(O)c2)ccn1)c1ccc(C(F)(F)F)cc1 | 14 µM | 10 µM | 4.29 µM | 3.8 µM | 13.7 µM | 18.7 µM | 4 µM | 4.45 µM | 3.29 µM | 14.5 µM | 2.63 µM | 2.52 µM | 1.31 µM | 1.67 µM | 2.81 µM | 1.81 µM | 1.72 µM | 1.7 µM | 3.05 µM | 2.53 µM |
| O=c1oc2ccc(Cl)cc2c(=O)n1-c1ccc(Cl)cc1F | 1.54 µM | 1.85 µM |  | 3.22 µM | > 95 µM | 17.7 µM | 22.4 µM | 4.8 µM | 2.27 µM | 0.498 µM | 0.219 µM | 0.512 µM | 0.462 µM | 0.331 µM | 1.59 µM | 6.74 µM | 1.76 µM | 0.424 µM | 0.161 µM | 3.83 µM |
| CCCC(OCC)(OCC)OCC | > 100 µM | > 100 µM | > 100 µM | > 100 µM | > 100 µM | > 100 µM | > 100 µM | > 100 µM | > 100 µM | > 100 µM |  |  |  |  |  |  |  |  |  |  |
| COc1ccc(OC)c(/C=C/c2nnc(Nc3ccc(Cl)cc3)o2)c1 | 7.94 µM | 7.92 µM | > 100 µM | 83.7 µM | > 100 µM | 83.2 µM | > 100 µM | 7.6 µM | > 100 µM | 7.76 µM | 2.26 µM | 2.71 µM | 48.2 µM | 7.13 µM | 7.4 µM | 16.6 µM | 2.67 µM | 7.91 µM | 1.87 µM | 32.5 µM |
| COc1cc(N2CCC(N3CCN(C)CC3)CC2)ccc1Nc1ncc(Cl)c(Nc2ccccc2P(C)(C)=O)n1 | 4.83 µM | 2.4 µM | > 33.6 µM | 17.3 µM | > 100 µM | 3.09 µM | 2.08 µM | 7.59 µM |  | 1.12 µM | 1.66 µM | 0.642 µM |  | 0.759 µM | 0.296 µM | 0.381 µM | 1.12 µM | 2.8 µM | 0.305 µM | 0.379 µM |
| Oc1c(Br)cc(Br)cc1CN(Cc1cc(Br)cc(Br)c1O)C1CCCCC1 | 71.5 µM | > 100 µM | > 100 µM | 36.5 µM | > 100 µM | 61 µM | 29.2 µM | > 100 µM | > 100 µM | 71.1 µM |  |  |  |  |  |  |  |  |  |  |
| CSc1nc(NC2OCC(OC(C)=O)C(OC(C)=O)C2OC(C)=O)c(N=CC=Nc2c(NC3OCC(OC(C)=O)C(OC(C)=O)C3OC(C)=O)nc(SC)n(C)c2=O)c(=O)n1C (stereo not given) | > 100 µM | > 100 µM | > 100 µM | > 100 µM | > 100 µM | > 100 µM | > 100 µM | > 100 µM | > 100 µM | > 100 µM |  |  |  |  |  |  |  |  |  |  |
